How the values were obtained:
[1] = tested on: non-endogenous, constitutively activated version of GCR1, R271P, BY-2 cells; test: Thymidine incorporation in synchronized BY-2 cells, constitutively activated GCR1 R271P; format: cell-based, tobacco (Nicotiana tabacum); conditions: 3 μM and 10 μM ABA; BY-2 cells with R271P GCR1; measured over time; FIG. 11B
Protocol: (§1) Agrobacterium tumefaciens were transformed with the pMON-GCR1 plasmid and used to produce transgenic BY-2 cell lines. BY-2 cells were transformed according to the method disclosed in An, G. Plan Physiol. 79, 568-570 (1985). The selected transgenic alli were grown in the dark on selective medium at the 24° C. and transferred to fresh medium every 4 week. Liquid cultures were obtained for the different transgenic lines and synchronization was achieved by a 24-h subculture in 5 mg/liter aphidicolin. See, Combettes, B. et al., Methods Cells Sci., 21, 109-121 (1991).
(§2) DNA synthesis is measured by incubating 1 ml samples of the synchronized cell suspension with 1 μCi of [^3H] thymidine for 20 minutes at 27° C. in Eppendorf microtubes with gentle shaking. Cells were collected by centrifugation for 5 minutes at 1,800× g, and the pellet was frozen in dry ice. DNA was extracted with Plant DNAzol Reagent (GIBCO/BRL), resuspended in water, and the [^3H] radioactivity was determined with a scintillation counter.
(§3) To determine the effect of the non-endogenous, constitutively activated version of GCR1, […], on the cell cycle, control cell (empty vector), wild-type GCR1 (“wt”) and R271P overexpressing BY-2 cells were synchronized with aphidicolin for 24 h, and, after removal of the cell cycle blocker, thymidine incorporation was measured. (See, FIG. 10). […]

[2] = tested on: wild-type GCR1 ("wt") BY-2 cells; test: Thymidine incorporation in synchronized BY-2 cells, wild-type GCR1; format: cell-based, tobacco (Nicotiana tabacum); conditions: 3 μM and 10 μM ABA; BY-2 cells with wild-type GCR1; measured over time; FIG. 11A
Protocol: as §1, §2, §3

CC1=CC(=O)CC(C)(C)C1(O)/C=C/C(C)=C\C(=O)O (centres unmarked) [ABA, Abscissic Acid]
thymidine incorporation (DNA synthesis) [1]: not affected | thymidine incorporation (DNA synthesis) [2]: decreases thymidine incorporation

— patent US20030073812A1, “Non-endogenous, constitutively activated versions of plant G protein-coupled receptor: GCR1” (priority 2001, published 2003)
